Results as given in patent US20050085463A1 (priority 2003, published 2005).
“Also recorded” adds a separate entry of the source. Read-outs that look alike come from different tables or passages of the source.

Legend:
5HT6 receptors = 5HT6 receptors (Homo sapiens, UniProt P50406); assay: Ligand binding screen at 10 μM
D3 dopamine receptor = D3 dopamine receptor (Homo sapiens, UniProt P35462); conditions: R-SAT; nr = no significant antagonist or inverse agonist activity up to 1 μM; nr* = nr but significant agonist activity
M3 receptors = M3 receptors (Homo sapiens, UniProt P20309); assay: Ligand binding screen at 10 μM
M1 receptors = M1 receptors (Homo sapiens, UniProt P11229); assay: Ligand binding screen at 10 μM
5-HT1A receptor = target: T1, 5-HT1A receptor (Homo sapiens, UniProt P08908); assay: R-SAT competitive antagonist assay; conditions: R-SAT; nr = no significant antagonist or inverse agonist activity up to 1 μM; nr* = nr but significant agonist activity
T1 sequence (P08908 1-422): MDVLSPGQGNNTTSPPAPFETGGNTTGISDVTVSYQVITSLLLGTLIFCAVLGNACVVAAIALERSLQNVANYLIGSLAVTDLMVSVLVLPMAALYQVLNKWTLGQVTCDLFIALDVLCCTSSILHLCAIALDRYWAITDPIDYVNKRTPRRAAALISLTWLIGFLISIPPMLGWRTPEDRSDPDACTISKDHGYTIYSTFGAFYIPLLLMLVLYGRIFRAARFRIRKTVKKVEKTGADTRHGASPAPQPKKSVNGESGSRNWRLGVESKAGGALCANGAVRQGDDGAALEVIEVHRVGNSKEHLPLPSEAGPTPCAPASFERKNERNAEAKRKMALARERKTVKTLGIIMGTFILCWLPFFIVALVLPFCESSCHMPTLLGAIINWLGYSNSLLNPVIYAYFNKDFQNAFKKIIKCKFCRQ

δ2 receptors = δ2 receptors (Homo sapiens, UniProt P41143); assay: Ligand binding screen at 10 μM
M1 muscarinic receptor [1] = target: T2, M1 muscarinic receptor (Homo sapiens, UniProt P11229); assay: R-SAT competitive antagonist assay; format: cell-based; design: expressed in transfected cells; host or cells: NIH/3T3; conditions: nr = no significant antagonist or inverse agonist activity up to 1 μM, nr* = nr but significant agonist activity
T2 sequence (P11229 1-460): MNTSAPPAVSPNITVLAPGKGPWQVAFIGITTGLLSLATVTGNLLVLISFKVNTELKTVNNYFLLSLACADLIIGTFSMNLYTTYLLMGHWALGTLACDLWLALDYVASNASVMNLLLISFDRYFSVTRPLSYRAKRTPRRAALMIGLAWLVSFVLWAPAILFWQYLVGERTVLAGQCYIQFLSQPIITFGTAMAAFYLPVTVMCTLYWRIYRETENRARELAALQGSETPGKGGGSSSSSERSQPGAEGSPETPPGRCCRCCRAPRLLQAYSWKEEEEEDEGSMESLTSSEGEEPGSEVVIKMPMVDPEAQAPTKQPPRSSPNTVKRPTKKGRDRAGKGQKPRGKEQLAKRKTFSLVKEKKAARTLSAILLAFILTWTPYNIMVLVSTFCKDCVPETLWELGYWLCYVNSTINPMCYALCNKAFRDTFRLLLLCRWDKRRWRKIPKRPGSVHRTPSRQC

[2] = system: MAPK in CA1 region of hippocampus (M1 receptor mediated)
M1 muscarinic receptor [3] = target: T2, M1 muscarinic receptor; assay: cell-based
H1 histamine receptor = H1 histamine receptor (Homo sapiens, UniProt P35367); assay: R-SAT competitive antagonist assay
[4] = Pharmacokinetics after i.v. or oral dose in dogs; format: in vivo, beagle dogs; conditions: dog; for concentration at 2 min / concentration at 5 min / concentration at 10 min / concentration at 30 min / concentration at 60 min / concentration at 120 min / concentration at 180 min / concentration at 240 min / concentration at 360 min: plasma; for bioavailability: NDMC p.o. 10 mg/kg vs i.v. 1 mg/kg, read-out: BA (oral bioavailability)
[5] = beagle, iv, 1 mg/kg, Plasma concentration after NDMC administration, NDMC i.v. 1 mg/kg
[6] = beagle, iv, 1 mg/kg, Plasma concentration of compound measured after clozapine administration, clozapine i.v. 1 mg/kg
[7] = beagle, po, 10 mg/kg, Plasma concentration after NDMC administration, NDMC p.o. 10 mg/kg
[8] = beagle, po, 10 mg/kg, Plasma concentration of compound measured after clozapine administration, clozapine p.o. 10 mg/kg

Chain of D3 dopamine receptor (P35462 whole entry): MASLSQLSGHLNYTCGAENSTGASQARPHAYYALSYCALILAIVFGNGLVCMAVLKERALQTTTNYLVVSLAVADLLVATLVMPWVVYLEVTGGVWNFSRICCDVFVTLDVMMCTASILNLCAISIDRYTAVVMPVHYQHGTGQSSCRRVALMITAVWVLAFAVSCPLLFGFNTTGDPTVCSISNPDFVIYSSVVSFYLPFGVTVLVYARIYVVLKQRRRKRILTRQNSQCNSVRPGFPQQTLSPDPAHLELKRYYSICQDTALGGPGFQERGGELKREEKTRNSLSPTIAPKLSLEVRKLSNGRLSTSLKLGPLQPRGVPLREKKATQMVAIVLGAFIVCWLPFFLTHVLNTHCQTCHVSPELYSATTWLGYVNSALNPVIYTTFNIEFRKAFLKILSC
Chain of H1 histamine receptor (P35367 whole entry): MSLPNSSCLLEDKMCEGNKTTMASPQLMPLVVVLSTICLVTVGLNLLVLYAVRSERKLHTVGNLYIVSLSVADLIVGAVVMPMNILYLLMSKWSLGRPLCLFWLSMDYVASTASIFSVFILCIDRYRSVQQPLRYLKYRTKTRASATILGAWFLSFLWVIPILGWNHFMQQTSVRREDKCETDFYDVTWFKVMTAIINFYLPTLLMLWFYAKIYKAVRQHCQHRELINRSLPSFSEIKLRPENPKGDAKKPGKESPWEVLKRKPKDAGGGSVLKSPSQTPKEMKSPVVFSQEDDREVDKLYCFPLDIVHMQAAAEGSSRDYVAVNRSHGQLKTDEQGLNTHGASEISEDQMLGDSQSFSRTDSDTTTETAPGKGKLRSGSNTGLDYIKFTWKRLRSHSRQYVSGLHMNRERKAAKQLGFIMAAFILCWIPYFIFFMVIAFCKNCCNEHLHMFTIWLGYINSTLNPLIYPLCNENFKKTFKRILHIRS
Chain of M3 receptors (P20309 whole entry): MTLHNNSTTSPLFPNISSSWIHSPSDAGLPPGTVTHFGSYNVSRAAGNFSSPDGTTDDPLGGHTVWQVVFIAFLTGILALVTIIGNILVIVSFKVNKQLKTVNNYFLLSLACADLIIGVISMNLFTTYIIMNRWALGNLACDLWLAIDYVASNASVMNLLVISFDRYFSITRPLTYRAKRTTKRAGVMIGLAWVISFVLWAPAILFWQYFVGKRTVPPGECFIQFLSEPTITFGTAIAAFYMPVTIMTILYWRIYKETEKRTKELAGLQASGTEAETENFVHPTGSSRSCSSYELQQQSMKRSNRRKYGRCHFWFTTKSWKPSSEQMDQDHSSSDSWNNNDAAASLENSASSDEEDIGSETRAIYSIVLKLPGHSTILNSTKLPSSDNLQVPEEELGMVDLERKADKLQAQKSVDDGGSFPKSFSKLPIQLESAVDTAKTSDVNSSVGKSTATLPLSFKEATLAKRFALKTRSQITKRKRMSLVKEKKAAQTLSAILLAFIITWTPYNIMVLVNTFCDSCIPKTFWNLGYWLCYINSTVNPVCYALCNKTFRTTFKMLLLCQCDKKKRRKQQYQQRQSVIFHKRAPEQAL
Chain of 5HT6 receptors (P50406 whole entry): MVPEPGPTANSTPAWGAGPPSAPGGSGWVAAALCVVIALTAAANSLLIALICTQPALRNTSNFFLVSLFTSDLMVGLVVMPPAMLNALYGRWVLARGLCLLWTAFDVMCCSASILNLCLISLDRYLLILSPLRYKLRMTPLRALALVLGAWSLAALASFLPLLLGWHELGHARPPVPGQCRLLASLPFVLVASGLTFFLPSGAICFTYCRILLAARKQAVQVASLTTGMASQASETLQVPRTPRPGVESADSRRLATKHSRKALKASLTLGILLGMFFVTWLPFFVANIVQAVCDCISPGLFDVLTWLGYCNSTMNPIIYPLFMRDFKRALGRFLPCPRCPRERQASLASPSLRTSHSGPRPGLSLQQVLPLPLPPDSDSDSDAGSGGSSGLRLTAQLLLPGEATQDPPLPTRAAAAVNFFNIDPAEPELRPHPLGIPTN
Chain of δ2 receptors (P41143 whole entry): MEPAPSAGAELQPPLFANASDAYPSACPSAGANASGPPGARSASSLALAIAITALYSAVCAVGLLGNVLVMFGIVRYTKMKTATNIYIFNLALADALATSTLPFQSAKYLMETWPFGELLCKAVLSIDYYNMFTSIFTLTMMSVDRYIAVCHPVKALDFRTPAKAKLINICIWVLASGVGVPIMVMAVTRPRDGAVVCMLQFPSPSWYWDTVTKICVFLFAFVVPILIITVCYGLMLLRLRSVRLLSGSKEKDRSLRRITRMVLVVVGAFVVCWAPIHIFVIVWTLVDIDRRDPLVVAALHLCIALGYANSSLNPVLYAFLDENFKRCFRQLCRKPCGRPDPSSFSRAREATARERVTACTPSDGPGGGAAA

With `Clc1ccc2c(c1)N=C(N1CCNCC1)c1ccccc1N2` [NDMC, 8-chloro-11-(1-piperazinyl)-5H-dibenzo [b,e][1,4] diazepine] the inhibition at 10 µM (5HT6 receptors) was at least 90%, the “pKi D3, competitive antagonist” value (D3 dopamine receptor) was “nr and nr^” and the inhibition at 10 µM (M3 receptors) was at least 90%. The inhibition at 10 µM (M1 receptors) was at least 90%, the “pKi 5-HT1A, competitive antagonist” value (5-HT1A receptor) was “nr and nr^1” and the inhibition at 10 µM (δ2 receptors) was at least 90%. For the same molecule, the “pKi M1, competitive antagonist” value (M1 muscarinic receptor [1]) was “nr*”, the “MAPK activation in CA1 region of hippocampus” value ([2]; s.c. 3, 10, 30 and 100 mg/kg, killed two hours later, phospho-MAPK immunoreactivity) was “stimulation of MAPK activity at all doses in a dose-dependent manner; also recorded: Robust activation was observed, at a dose of 30 mg/kg” and the “dose with statistically significant M1 receptor activation (phospho-MAPK)” value ([2]; s.c., optical density of CA1 region, vs vehicle) was at least 30 mg/kg. For the same molecule, the Emax (M1 muscarinic receptor [3]; CHO, read-out: M1 % Efficacy, PI hydrolysis, relative to carbachol) was 56%, the EC50 (M1 muscarinic receptor [3]; M1 pEC50, PI hydrolysis, agonist) was 200 nM and the EC50 (M1 muscarinic receptor [3]; potency, M1 agonist, PI hydrolysis, n=3) was 93 nM. The Ki (H1 histamine receptor) was 6.31 nM, the “pKi H1, competitive antagonist” value (H1 histamine receptor; R-SAT, nr = no significant antagonist or inverse agonist activity up to 1 μM, nr* = nr but significant agonist activity) was 8.2 ± 0.2 and the concentration at 2 min [4, 5] was 182 ng/mL. For the same molecule, the concentration at 5 min [4, 5] was 73 ± 22 ng/mL, the concentration at 10 min [4, 5] was 50 ± 10 ng/mL and the concentration at 30 min [4, 5] was 35 ± 2 ng/mL. It also gave a concentration at 60 min [4, 5] of 32 ± 6 ng/mL, a concentration at 120 min [4, 5] of 28 ± 4 ng/mL and a concentration at 180 min [4, 5] of 27 ± 7 ng/mL. The concentration at 240 min [4, 5] was 27 ± 4 ng/mL, the concentration at 2 min [4, 6] was 0.54 ± 0.12 ng/mL and the concentration at 5 min [4, 6] was 0.47 ± 0.06 ng/mL. It also gave a concentration at 10 min [4, 6] of 0.64 ± 0.26 ng/mL, a concentration at 30 min [4, 6] of 1.72 ± 0.75 ng/mL and a concentration at 60 min [4, 6] of 3.55 ± 1.03 ng/mL. It also gave a concentration at 120 min [4, 6] of 4.31 ± 1.34 ng/mL, a concentration at 180 min [4, 6] of 4.89 ± 1.41 ng/mL and a concentration at 240 min [4, 6] of 4.44 ± 1.31 ng/mL. For the same molecule, the concentration at 10 min [4, 7] was 1 ng/mL, the concentration at 30 min [4, 7] was 14 ± 12 ng/mL and the concentration at 60 min [4, 7] was 67 ± 37 ng/mL. The concentration at 120 min [4, 7] was 155 ± 95 ng/mL, the concentration at 180 min [4, 7] was 249 ± 44 ng/mL and the concentration at 240 min [4, 7] was 274 ± 44 ng/mL. It also gave a concentration at 360 min [4, 7] of 261 ng/mL, a concentration at 10 min [4, 8] of 0 ng/mL and a concentration at 30 min [4, 8] of 2.45 ng/mL. The concentration at 60 min [4, 8] was 25.4 ng/mL, the concentration at 120 min [4, 8] was 5.8 ng/mL and the concentration at 180 min [4, 8] was 10.3 ng/mL. It also gave a concentration at 240 min [4, 8] of 19.2 ng/mL, a concentration at 360 min [4, 8] of 46.7 ng/mL and an AUC ([4]; beagle, serum, iv, 1 mg/kg) of 135 ± 21.3 ng·h/mL. It also gave a Cmax ([4]; beagle, serum, iv, 1 mg/kg) of 353 ng/mL, a Vd ([4]; beagle, serum, iv, 1 mg/kg) of 28.2 ± 4.92 L/kg and a half-life ([4]; beagle, serum, iv, 1 mg/kg) of 13.2 ± 7 h. It also gave a bioavailability ([4]; beagle, serum, oral, 10 mg/kg) of about 44%, an AUC ([4]; beagle, serum, po, 10 mg/kg) of 598 ± 112 ng·h/mL and a Cmax ([4]; beagle, serum, po, 10 mg/kg) of 286 ng/mL. For the same molecule, the Tmax ([4]; beagle, serum, po, 10 mg/kg) was 3.3 ± 1.2 h, the bioavailability ([4]; beagle, serum, po, 10 mg/kg) was 44% and the “time by which Cmax was achieved” value ([4]; after NDMC p.o. 10 mg/kg) was at most 3.3 h. The “peak NDMC levels as share of peak clozapine levels” value ([4]; after clozapine) was “approximately 16%”.
